For assay [1], the system named is Enterococcus faecalis ATCC 51299 (VRE). In words: MIC, Gram-positive panel. It is filed as cell-based. How it is done:
(§1) Next, the spectrum of antibacterial activity of compounds 144, 148, 149, 151, 155, 158, and 187 was examined against a panel of clinically relevant Gram-positive bacterial pathogens including methicillin-resistant Staphylococcus aureus (MRSA), vancomycin-resistant Staphylococcus aureus (VRSA), vancomycin-resistant Enterococcus faecalis and Enterococcus faecium (VRE), and Streptococcus pneumoniae. Bacterial strains were grown aerobically overnight on tryptone soya agar plates at 37° C. Afterwards, a bacterial solution equivalent to 0.5 McFarland standard was prepared and diluted in cation-adjusted Mueller-Hinton broth (CAMHB) (for staphylococci). Enterococci and Streptococci were diluted in tryptone soya broth (TSB) to achieve a bacterial concentration of about 5×10^5 CFU/mL and seeded in 96-well plates. Compounds and control drugs were added in the first row of 96-well plates and serially diluted with media containing bacteria. Plates were then, incubated aerobically at 37° C. for 18-20 hours (except for S. pneumoniae, which was incubated at 37° C. in presence of 5% CO2 for 18-20 hours).

The test system of assay [2] is Enterococcus faecium ATCC 700221 (VRE). Nature of the assay: MIC, Gram-positive panel. It is filed as cell-based. The method, then:
as §1

For assay [3], the system named is MRSA NRS 119. In words: MIC, Gram-positive panel. Format: cell-based. As to conditions: Staphylococcus aureus. How it is done: as §1
The test system of assay [4] is MRSA NRS 123. In words: MIC, Gram-positive panel. It is filed as cell-based. As to conditions: Staphylococcus aureus. How it is done: as §1
Assay [5] deals with MRSA NRS 385. In words: MIC, Gram-positive panel. The following applies: Staphylococcus aureus. Format: cell-based. How it is done:
as §1

For assay [6], the system named is MRSA NRS 386. Nature of the assay: MIC, Gram-positive panel. As to conditions: Staphylococcus aureus. It is filed as cell-based. How it is done: as §1
Assay [7] concerns Methicillin-resistant S. epidermidis NRS101. Nature of the assay: MIC, Gram-positive panel. It is filed as cell-based. The following applies: Staphylococcus epidermidis. The method, then: as §1
The subject of assay [8] is Methicillin-resistant S. pneumoniae ATCC 700677. In words: MIC, Gram-positive panel. As to conditions: Streptococcus pneumoniae, ATCC700677. Format: cell-based. The method, then: as §1
For assay [9], the system named is S. aureus ATCC 6538. Nature of the assay: MIC, Gram-positive panel. Format: cell-based. The following applies: Staphylococcus aureus, ATCC6538. How it is done: as §1
The subject of assay [10] is S. aureus NRS 107. Nature of the assay: MIC, Gram-positive panel. It is filed as cell-based. The following applies: Staphylococcus aureus, NRS107. The method, then:
as §1

For assay [11], the system named is S. pneumoniae ATCC 51916. In words: MIC, Gram-positive panel. It is filed as cell-based. The following applies: Streptococcus pneumoniae, ATCC51916. How it is done: as §1
Assay [12] has as its system VRSA 10. Nature of the assay: MIC, Gram-positive panel. As to conditions: Staphylococcus aureus. It is filed as cell-based. How it is done: as §1
Assay [13] relates to VRSA 12. In words: MIC, Gram-positive panel. Format: cell-based. The following applies: Staphylococcus aureus. The method, then:
as §1

Assay [14] deals with Staphylococcus aureus NRS384 (MRSA USA300). In words: Initial MIC screening, broth microdilution (CLSI). Format: cell-based. As to conditions: for MIC: Staphylococcus aureus NRS384 (MRSA USA300), broth microdilution, visual reading. In short, it runs like this:
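MRSA USA300 grown 24 h at 37 °C on tryptic soy agar, then adjusted to 5×10^5 CFU/ml in cation-adjusted Mueller-Hinton broth. Compounds serially diluted 64 to 0.5 μg/mL per CLSI broth microdilution; MIC recorded.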

The test system of assay [15] is MRSA USA 400. In words: Time-kill assay. As to conditions: 5×MIC; for time required for complete eradication of the bacterial count: MRSA USA 400, 24-hour incubation. It is filed as cell-based, Staphylococcus aureus. The method, then:
In order to the mode of killing of methylene lactone compounds, a time kill assay was performed against MRSA USA 400 as described previously. MRSA USA400 cells in logarithmic growth phase (OD600˜1.00) were diluted to 6.03×10^6 colony-forming units (CFU/mL) and exposed to concentrations equivalent to 5×MIC (in triplicate) of 148, 149, 151, 155, 158 and vancomycin in Tryptic soy broth. Aliquots (100 μL) were collected from each treatment after 0, 2, 4, 6, 8, 12, and 24 hours of incubation at 37° C. and subsequently serially diluted in PBS. Bacteria were then transferred to Tryptic soy agar plates and incubated at 37° C. for 18-20 hours before viable CFU/mL was determined (FIG. 1).
DMSO (solvent for the compounds) served as a negative control and vancomycin served as a control drug. The error bars represent standard deviation values obtained from triplicate samples used for each compound/antibiotic studied.

Assay [16] deals with total proteases production in MRSA USA300. Nature of the assay: Inhibition of staphylococcal total proteases production, skimmed milk method. Format: cell-based, Staphylococcus aureus. As to conditions: MRSA USA300, 0.25×MIC, untreated = 100%. How it is done: The modified skimmed milk method was utilized to investigate the protease inhibitory activities of BHS compounds as described previously. In brief, overnight culture of MRSA300 in TSB, with and without subinhibitory concentrations of compounds (in triplicate), was centrifuged at 14000×g for 10 minutes. Then, a total volume of 500 μL of culture supernatant was incubated with 1 mL skimmed milk (1.25%) at 37° C. for 1 hour. Afterwards, the OD600 was measured to indicate the degree of clearance of skimmed milk. Higher OD values indicate lower proteolytic activity and greater protease inhibitory activity.
FIG. 4. Influence of BHS compounds on the staphylococcal total protease production. OD600 was measured following overnight culturing of MRSA USA300 in TSB in presence and absence of 0.25×MIC of 148, 149, 155, 158 and vancomycin followed by incubation of supernatants with skim milk for 1 hour at 37° C. The Data are presented as percent production (means±standard deviation). DMSO (the solvent for the compounds that served as a negative control). Vancomycin served as the control antibiotic. The values represent an average (means±standard deviation) of four samples analyzed for each compound/antibiotic. Error bars represent standard deviation values. An asterisk (*) denotes statistical significance (P<0.05) between results for compounds 148, 149, 155, 158 and vancomycin analyzed via unpaired t test ([…]).

Assay [17] relates to intracellular MRSA USA400 inside murine macrophage (J774) cells. In words: Clearance of intracellular MRSA in infected J774 macrophages. It is filed as cell-based, Staphylococcus aureus. The following applies: 24 hours, J774 infected with MRSA USA400. How it is done:
The ability of the compound 148 to reduce the burden of intracellular MRSA was evaluated utilizing previously described methods. Murine macrophage cells (J774) were cultured in Dulbecco's Modified Eagle Medium (DMEM) supplemented with 10% FBS at 37° C. with CO2 (5%). J774 cells were exposed to MRSA USA400 cells at a multiplicity of infection of approximately 10:1. After 1 hour of infection, J774 cells were washed with gentamicin (200 μg/mL) to kill extracellular MRSA. The compounds or vancomycin (at 4×MIC and 8×MIC) were subsequently added to each well (four replicates per test agent). Control cells received DMSO at a concentration equal to that in drug-treated cell samples. After 24 hours-incubation at 37° C. with 5% CO2, the test agents were removed. J774 cells were washed and subsequently lysed using 0.1% Triton-X. The solution was serially diluted in phosphate-buffered saline and transferred to TSA plates in order to determine viable MRSA CFU inside the J774 cells. Plates were incubated at 37° C. for 18-22 hour before counting viable CFU/mL. Statistical significance was assessed with two-way ANOVA, with post hoc Dunnet's multiple comparisons test (P<0.05), utilizing GraphPad Prism 6.0 (GraphPad Software, La Jolla, Calif.).
FIG. 6. Examination of the activity of compounds 148 on the clearance of intracellular MRSA present inside infected murine macrophage (J774) cells. […] Data were analyzed via two-way ANOVA, with post hoc Dunnet's multiple comparisons test (P<0.05), utilizing GraphPad Prism 6.0 (GraphPad Software, La Jolla, Calif.). Asterisks (*) represent significant difference between treatment of J774 cells with compound 148 in comparison to vancomycin.

[18] abbreviates: Enterococcus faecalis ATCC 51299 (VRE), read-out: MIC.
Setting [19] is: Enterococcus faecium ATCC 700221 (VRE), read-out: MIC.
Where [20] appears, read: Methicillin-resistant S. epidermidis NRS101, read-out: MIC.
Where [21] appears, read: Methicillin-resistant S. pneumoniae ATCC 700677, read-out: MIC.
The mark [22] stands for this setting: S. aureus ATCC 6538, read-out: MIC.
Setting [23] is: S. aureus NRS 107, read-out: MIC.
Where [24] appears, read: S. pneumoniae ATCC 51916, read-out: MIC.

Values after ≈ are worked out from the molar mass of the structure shown. Read-outs that look alike come from different tables or passages of the source. Where only a bound is given, the exact number is not on record here.

For the compound `CC(=O)NC[C@H]1CN(c2ccc(N3CCOCC3)c(F)c2)C(=O)O1` [linezolid, reference compound], the MIC (as a rule, the smallest concentration in the dilution series that meets the test's criterion for growth inhibition) in assay [1] (setting [18]) was 2 µg/mL (≈ 5.93 µM); in [2] (setting [19]), 1 µg/mL (≈ 2.96 µM); in assay [3] (MRSA NRS 119, read-out: MIC), > 16 µg/mL; in [4] (MRSA NRS 123, read-out: MIC) it was 2 µg/mL (≈ 5.93 µM); in assay [5] (MRSA NRS 385, read-out: MIC), 2 µg/mL (≈ 5.93 µM); in assay [6] (MRSA NRS 386, read-out: MIC), 2 µg/mL (≈ 5.93 µM). Also, the MIC in assay [7] (setting [20]) worked out at 1 µg/mL (≈ 2.96 µM); in assay [8] (setting [21]), 2 µg/mL (≈ 5.93 µM); in [9] (setting [22]), 2 µg/mL (≈ 5.93 µM); in [10] (setting [23]), 1 µg/mL (≈ 2.96 µM); in assay [11] (setting [24]), 2 µg/mL (≈ 5.93 µM); in assay [12] (VRSA 10, read-out: MIC), 1 µg/mL (≈ 2.96 µM). In addition, in assay [13] (VRSA 12, read-out: MIC), the MIC stood at 1 µg/mL (≈ 2.96 µM).
For the compound `C=C(C(=O)OC)C(c1ccc2ccccc2c1)C(O)c1ccc2ccccc2c1` (centres unmarked) [Compound 149], in [14] (MRSA USA300, Table 1 assay), the “potency compared with control antibiotic” value was “potency comparable to vancomycin”. Also, the MIC was 2 µg/mL (≈ 5.23 µM) in assay [14]; 1 to 2 µg/mL (≈ 2.61 to 5.23 µM) in [14] (Staphylococcus aureus, read-out: MIC); > 64 µg/mL in [1] (setting [18]); > 64 µg/mL in assay [2] (setting [19]); 1 µg/mL (≈ 2.61 µM) in [3] (MRSA NRS 119, read-out: MIC); 1 µg/mL (≈ 2.61 µM) in assay [4] (MRSA NRS 123, read-out: MIC). In addition, the MIC in [5] (MRSA NRS 385, read-out: MIC) worked out at 1 µg/mL (≈ 2.61 µM); in assay [6] (MRSA NRS 386, read-out: MIC) it was 1 µg/mL (≈ 2.61 µM); in [7] (setting [20]) it was 2 µg/mL (≈ 5.23 µM); in assay [8] (setting [21]), 4 µg/mL (≈ 10.5 µM); in assay [9] (setting [22]), 1 µg/mL (≈ 2.61 µM); in assay [10] (setting [23]) it was 1 µg/mL (≈ 2.61 µM). Moreover, the minimal inhibitory concentration (MIC) in assay [11] (setting [24]) was 4 µg/mL (≈ 10.5 µM); in [12] (VRSA 10, read-out: MIC), 8 µg/mL (≈ 20.9 µM); in assay [13] (VRSA 12, read-out: MIC), 16 µg/mL (≈ 41.8 µM). Besides, in assay [15], the “time required for complete eradication of the bacterial count” value is “not able to completely eradicate it after 24 hours”. The “reduction in the bacterial count after 6 hours” value in [15] (MRSA USA 400, after 6 hours) was found to be 3 log10. In addition, in assay [15] (MRSA USA 400, after 6 hours), the “reduction in the bacterial count after 6 hours (percent)” value was 99.9%. This compound registered a total protease production in assay [16] of 63%.
As to `CN[C@H](CC(C)C)C(=O)N[C@H]1C(=O)N[C@@H](CC(N)=O)C(=O)N[C@H]2C(=O)N[C@H]3C(=O)N[C@H](C(=O)N[C@H](C(=O)O)c4cc(O)cc(O)c4-c4cc3ccc4O)[C@H](O)c3ccc(c(Cl)c3)Oc3cc2cc(c3O[C@@H]2O[C@H](CO)[C@@H](O)[C@H](O)[C@H]2O[C@H]2C[C@](C)(N)[C@H](O)[C@H](C)O2)Oc2ccc(cc2Cl)[C@H]1O` [vancomycin, reference compound], the minimum inhibitory concentration (MIC) is 32 µg/mL (≈ 22.1 µM) in assay [1] (Enterococcus faecalis); > 64 µg/mL in [2] (Enterococcus faecium); 1 µg/mL (≈ 0.69 µM) in assay [3]; 1 µg/mL (≈ 0.69 µM) in [4]; 1 µg/mL (≈ 0.69 µM) in assay [5]; 1 µg/mL (≈ 0.69 µM) in assay [6]. Moreover, the minimal inhibitory concentration (MIC) in [7] (NRS101) was 2 µg/mL (≈ 1.38 µM); in assay [8], 2 µg/mL (≈ 1.38 µM); in assay [9] it was 1 µg/mL (≈ 0.69 µM); in assay [10], 2 µg/mL (≈ 1.38 µM); in assay [11], 2 µg/mL (≈ 1.38 µM); in [12] (VRSA), > 64 µg/mL. Further, in assay [13] (VRSA), the MIC was > 64 µg/mL. For the same compound, the “time required for complete eradication of the bacterial count” value in assay [15] is 12 h. For the same compound, in assay [16], the total protease production result is recorded as “ineffective”. For the same compound, the “reduction of intracellular MRSA” value in [17] (4 μg/mL) and in [17] (8 μg/mL) was “not able to reduce” throughout.

These data come from US20210317099A1, “SAFER, POTENT, AND FAST ACTING ANTIMICROBIAL AGENTS” (Purdue Research Foundation, priority 2020, published 2021).
